Where two headings read alike, the source gives them in different places.
What was measured:
rat A1 receptors (rA1) = target: T1, rat A1 receptors (rA1) (Rattus norvegicus, UniProt P25099); test: Displacement of [3H]R-PIA binding in rat brain (cerebral cortical) membranes
T1 construct: to A1 receptors from rat cerebral cortical membranes; from tissue; host or cells: rat cerebral cortical (brain) membranes
T1 sequence (P25099 1-326): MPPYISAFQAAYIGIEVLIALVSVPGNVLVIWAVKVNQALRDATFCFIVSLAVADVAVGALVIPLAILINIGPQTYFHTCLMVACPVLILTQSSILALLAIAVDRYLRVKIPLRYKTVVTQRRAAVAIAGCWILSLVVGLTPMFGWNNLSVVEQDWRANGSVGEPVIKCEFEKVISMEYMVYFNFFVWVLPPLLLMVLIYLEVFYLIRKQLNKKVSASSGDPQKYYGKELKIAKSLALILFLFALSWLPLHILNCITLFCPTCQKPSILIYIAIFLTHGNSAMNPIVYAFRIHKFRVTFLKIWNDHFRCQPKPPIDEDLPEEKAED

rat A2A receptors (rA2A) = target: T2, rat A2A receptors (rA2A) (Rattus norvegicus, UniProt P30543); test: Displacement of [3H]CGS 21680 binding in rat striatal membranes
T2 construct: to A2A receptors from rat striatal membranes was performed as described; from tissue; host or cells: rat striatal membranes

[1] = target: T3, human A2B receptors (hA2B) (Homo sapiens, UniProt P29275); test: Radioligand binding ([125I]ABOPX / [3H]ZM241385) at human A2B receptors expressed in HEK-293 cells; settings: for hA1/hA2B / hA2A/hA2B / hA3/hA2B / rA1/hA2B: Ki ratio
T3 construct: expressed in transfected cells; host or cells: HEK-293 (HEK-A2B, G418-selected)
T3 sequence (P29275 1-332): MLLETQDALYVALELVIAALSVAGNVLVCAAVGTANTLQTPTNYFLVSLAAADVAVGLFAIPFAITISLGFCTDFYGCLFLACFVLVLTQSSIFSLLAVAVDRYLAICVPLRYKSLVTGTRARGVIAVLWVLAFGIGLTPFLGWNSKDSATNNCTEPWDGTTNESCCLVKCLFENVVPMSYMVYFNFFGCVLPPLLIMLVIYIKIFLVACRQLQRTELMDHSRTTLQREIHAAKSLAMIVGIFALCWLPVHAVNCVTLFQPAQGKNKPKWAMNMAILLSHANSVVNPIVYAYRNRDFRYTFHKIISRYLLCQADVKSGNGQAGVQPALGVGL

human A3 receptors (hA3) [2] = target: T4, human A3 receptors (hA3) (Homo sapiens, UniProt P0DMS8); test: Displacement of [125I]ABA binding at human A3 receptors expressed in HEK-293 cells; settings: Table 1; [125I]ABA, HEK-293; read-out: hA3 Ki or IC50
T4 construct: expressed in transfected cells; host or cells: HEK-293
T4 sequence (P0DMS8 1-318): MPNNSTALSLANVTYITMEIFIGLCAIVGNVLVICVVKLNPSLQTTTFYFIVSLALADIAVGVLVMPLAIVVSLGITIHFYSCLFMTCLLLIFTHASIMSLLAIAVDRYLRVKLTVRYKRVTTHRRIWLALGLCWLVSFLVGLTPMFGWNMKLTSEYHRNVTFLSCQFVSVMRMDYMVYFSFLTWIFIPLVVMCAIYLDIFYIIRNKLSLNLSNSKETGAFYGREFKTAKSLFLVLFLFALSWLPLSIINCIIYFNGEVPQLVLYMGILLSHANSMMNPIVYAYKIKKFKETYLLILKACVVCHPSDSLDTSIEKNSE

A3 receptors (r) = target: T5, A3 receptors (r) (Rattus norvegicus, UniProt P28647); test: Binding at rat A3 receptors, values marked (r) in Table 1
T5 sequence (P28647 1-320): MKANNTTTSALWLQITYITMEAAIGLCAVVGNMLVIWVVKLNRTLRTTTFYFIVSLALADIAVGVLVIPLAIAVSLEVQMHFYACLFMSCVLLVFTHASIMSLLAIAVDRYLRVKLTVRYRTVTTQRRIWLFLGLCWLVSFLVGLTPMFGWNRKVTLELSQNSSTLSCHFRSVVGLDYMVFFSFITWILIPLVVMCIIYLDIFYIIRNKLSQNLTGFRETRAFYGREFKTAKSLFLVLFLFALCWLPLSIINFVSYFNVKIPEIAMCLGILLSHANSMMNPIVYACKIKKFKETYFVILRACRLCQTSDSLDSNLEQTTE

[3] = target: T6, recombinant human A1 receptors (hA1) (Homo sapiens, UniProt P30542); test: Radioligand binding ([3H]CPX) at recombinant human A1 receptors in HEK-293 cells
T6 sequence (P30542 1-326): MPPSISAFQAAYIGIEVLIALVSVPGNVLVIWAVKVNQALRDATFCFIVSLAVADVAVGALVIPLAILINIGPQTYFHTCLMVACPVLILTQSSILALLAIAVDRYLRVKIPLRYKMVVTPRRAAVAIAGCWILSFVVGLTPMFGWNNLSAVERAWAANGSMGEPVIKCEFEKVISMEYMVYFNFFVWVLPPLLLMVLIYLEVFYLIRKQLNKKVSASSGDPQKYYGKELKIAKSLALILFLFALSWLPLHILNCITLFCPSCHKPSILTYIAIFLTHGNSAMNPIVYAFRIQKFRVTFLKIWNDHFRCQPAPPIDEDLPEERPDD
Description: (§1) All non-radioactive compounds were initially dissolved in DMSO, and diluted with buffer to the final concentration, where the amount of DMSO never exceeded 2%. Incubations were terminated by rapid filtration over Whatman GF/B filters, using a Brandell cell harvester (Brandell, Gaithersburg, Md.). The tubes were rinsed three times with 3 mL buffer each.
(§2) At least six different concentrations of competitor, spanning 3 orders of magnitude adjusted appropriately for the IC50 of each compound, were used. IC50 values, calculated with the nonlinear regression method implemented in (Graph-Pad Prism, San Diego, Calif.), were converted to apparent Ki values as described.
(§3) The potency of the xanthine derivatives at human A2B receptors was evaluated using two binding assays. […] In order to determine selectivity, the xanthines were evaluated using standard binding assays at A1, A2A, and A3 receptors.

[4] = target: recombinant human A2A receptors (hA2A) (Homo sapiens, UniProt P29274); test: Radioligand binding (125I-ZM241385) at recombinant human A2A receptors in HEK-293 cells
Description: as §1, §2, §3

human A3 receptors (hA3) [5] = target: T4, human A3 receptors (hA3); test: Displacement of [125I]AB-MECA binding at human A3 receptors expressed in HEK-293 cells (Table 4)
[6] = Table 1, [3H]R-PIA, rat brain membranes, read-out: rA1 Ki or IC50
[7] = Table 1, [3H]CGS 21680, rat striatal membranes, read-out: rA2A Ki or IC50
[8] = Table 1, [125I]ABOPX, HEK-293, read-out: hA2B Ki or IC50
[9] = read-out: hA1 Ki, values marked (h), Table 1, recombinant human A1, HEK 293
[10] = read-out: hA2A Ki, values marked (h), Table 1, recombinant human A2A, HEK 293
[11] = Table 4, unmarked value, first of two binding assays, read-out: hA2B Ki
[12] = read-out: hA1 Ki, values marked (h)^a, Table 4, vs [3H]CPX, HEK-293
[13] = read-out: hA2A Ki, values marked (h)^a, Table 4, vs [125I]ZM241385, HEK-293
[14] = read-out: Ki value at human A2B receptors

recombinant human A2A receptors (hA2A), sequence (P29274 whole entry): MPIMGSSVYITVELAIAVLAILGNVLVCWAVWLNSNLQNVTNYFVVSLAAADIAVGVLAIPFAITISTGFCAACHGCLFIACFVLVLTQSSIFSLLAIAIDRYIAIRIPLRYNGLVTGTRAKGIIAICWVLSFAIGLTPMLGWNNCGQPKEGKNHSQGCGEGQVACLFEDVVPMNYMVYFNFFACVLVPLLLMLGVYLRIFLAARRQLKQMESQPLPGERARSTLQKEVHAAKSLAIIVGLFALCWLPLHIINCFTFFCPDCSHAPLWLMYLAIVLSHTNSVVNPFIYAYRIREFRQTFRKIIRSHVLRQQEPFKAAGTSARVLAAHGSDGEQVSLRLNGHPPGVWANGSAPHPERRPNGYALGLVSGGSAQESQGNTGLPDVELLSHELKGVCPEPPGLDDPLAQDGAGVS
T2 sequence (P30543 whole entry): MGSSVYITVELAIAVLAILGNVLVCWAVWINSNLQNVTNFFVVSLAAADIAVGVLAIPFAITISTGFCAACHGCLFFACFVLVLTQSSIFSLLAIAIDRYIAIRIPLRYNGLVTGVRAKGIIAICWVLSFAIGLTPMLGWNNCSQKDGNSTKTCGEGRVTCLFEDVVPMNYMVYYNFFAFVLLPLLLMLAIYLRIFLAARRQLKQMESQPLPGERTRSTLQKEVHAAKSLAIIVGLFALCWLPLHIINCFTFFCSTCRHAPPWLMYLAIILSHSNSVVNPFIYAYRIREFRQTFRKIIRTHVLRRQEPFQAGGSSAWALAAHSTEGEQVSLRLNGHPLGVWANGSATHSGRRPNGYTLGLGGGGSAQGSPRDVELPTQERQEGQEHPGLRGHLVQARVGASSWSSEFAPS

| Structure (SMILES) | Ki (rat A1 receptors (rA1); Table 4, read-out: rA1 Ki) | Ki (rat A2A receptors (rA2A); Table 4, read-out: rA2A Ki) | rA1/hA2B ([1]; Table 4) | Ki [1, 11] | Ki (human A3 receptors (hA3) [5]) | Ki [1, 14] | other results |
| --- | --- | --- | --- | --- | --- | --- | --- |
| CCCCn1c(=O)c2[nH]c(-c3ccc(OCC(=O)O)cc3)nc2n(CCCC)c1=O [Compound 6] |  |  |  |  |  |  | Ki (rat A1 receptors (rA1); [6]): 43.1 ± 9.9 nM; Ki (rat A2A receptors (rA2A); [7]): 874 ± 107 nM; hA1/hA2B ([1]; Table 1): 3.1; hA2A/hA2B ([1]; Table 1): 53; hA3/hA2B ([1]; Table 1): 1.9; Ki [1, 8]: 48 ± 16.9 nM; Ki (human A3 receptors (hA3) [2]): 90.3 ± 14.2 nM; Ki (A3 receptors (r)): 27500 nM; Ki [3, 9]: 149 ± 83 nM; Ki [4, 10]: 2540 nM |
| CCCn1c(=O)c2[nH]c(-c3ccc(OCC(=O)NNC(=O)CCC(=O)O)cc3)nc2n(CCC)c1=O [Compound 42, 8-[4-[(Carboxymethyl)oxy]phenyl]-1,3-di-(n-propyl)xanthine N-[(3-Carboxy)-n-propionyl]hydrazide] | 73.3 ± 22 nM | 174 ± 32 nM | 1.6 | 116 ± 10 nM | 173 ± 27 nM |  | Ki ([1]; Table 4, footnote a: [125I]-ABOPX, read-out: hA2B Ki (value marked ^a) (converted)): 97.8 nM; Ki [3, 12]: 219 nM; Ki [4, 13]: 795 nM |
| CCCn1c(=O)c2[nH]c(-c3ccc(OCC(=O)NNC(=O)CNC(=O)CNC(=O)OCc4ccccc4)cc3)nc2n(CCC)c1=O [Compound 64, 8-[4-[(Carboxymethyl)oxy]phenyl]-1,3-di-(n-propyl)xanthine N-(N-Benzyloxycarbonyl-glycylglycinyl)hydrazide] | 36 ± 6.6 nM | 609 ± 95 nM | 3.3 | 10.8 ± 5 nM | 323 ± 47 nM | 11 nM | Ki [3, 12]: 200 ± 22 nM; Ki [4, 13]: 830 ± 84 nM |
| CCCn1c(=O)c2[nH]c(-c3ccc(OCC(=O)O)cc3)nc2n(CCC)c1=O [Compound 4a, 8-[4-[[[carboxy]methyl]oxy]phenyl]-1,3-dipropylxanthine] |  |  |  |  |  |  | Ki (human A3 receptors (hA3) [2]): 3910 nM; Ki (A3 receptors (r)): 75700 nM; Ki [3, 9]: 175 ± 57 nM |
| C=CCn1c(=O)c2[nH]c(-c3ccc(OCC(=O)O)cc3)nc2n(CC=C)c1=O [Compound 5] |  |  |  |  |  |  | Ki (rat A1 receptors (rA1); [6]): 756 ± 147 nM; Ki (rat A2A receptors (rA2A); [7]): 4290 nM; hA1/hA2B ([1]; Table 1): 12; hA2A/hA2B ([1]; Table 1): 17; hA3/hA2B ([1]; Table 1): 5.8; Ki [1, 8]: 141 ± 29 nM; Ki (human A3 receptors (hA3) [2]): 816 ± 91 nM; Ki (A3 receptors (r)): 173000 nM; Ki [3, 9]: 1660 nM; Ki [4, 10]: 2370 nM |
| CCCn1c(=O)c2[nH]c(-c3ccc(OCC(=O)NNC(=O)C4=C(C(=O)O)CCCC4)cc3)nc2n(CCC)c1=O [Compound 55, 8-[4-[(Carboxymethyl)oxy]phenyl]-1,3-di-(n-propyl)xanthine N-[2-((1-Carboxy)-1-cyclohexene)-carbonyl]hydrazide] | 47.2 ± 6.8 nM | 422 ± 136 nM | 2.7 | 17.3 ± 6.3 nM | 438 ± 109 nM | 17 nM | Ki [3, 12]: 145 nM; Ki [4, 13]: 95.6 nM |
| CCCn1c(=O)c2[nH]c(-c3ccc(OCC(=O)NNC(=O)[C@H](CCC(=O)O)NC(=O)C(F)(F)F)cc3)nc2n(CCC)c1=O [Compound 60, 8-[4-[(Carboxymethyl)oxy]phenyl]-1,3-di-(n-propyl)xanthine N-[(4-Carboxy-(2S)-Trifluoroacetamido)-n-butanoyl]hydrazide] | 70.8 ± 30.9 nM | 872 ± 412 nM | 2.9 | 24.8 ± 7.3 nM | 430 ± 44 nM | 25 nM |  |

More lines, main results first:

| Ki (rat A1 receptors (rA1); Table 4, read-out: rA1 Ki) | Ki (rat A2A receptors (rA2A); Table 4, read-out: rA2A Ki) | rA1/hA2B ([1]; Table 4) | Ki [1, 11] | Ki (human A3 receptors (hA3) [5]) | Ki [1, 14] | Structure (SMILES) | other results |
| --- | --- | --- | --- | --- | --- | --- | --- |
| 55.9 ± 25.1 nM | 805 ± 44 nM | 3.0 | 18.6 ± 6.1 nM | 766 ± 176 nM |  | CCCn1c(=O)c2[nH]c(-c3ccc(OCC(=O)NN4C(=O)CCC4=O)cc3)nc2n(CCC)c1=O [Compound 43, 8-[4-[(Carboxymethyl)oxy]phenyl]-1,3-di-(n-propyl)xanthine N,N-Succinylhydrazide] | Ki [3, 12]: 75.2 nM; Ki [4, 13]: 27.2 nM |
| 36.4 ± 6.2 nM | 689 ± 477 nM | 3.6 |  | 370 ± 190 nM | 10 nM | CCCn1c(=O)c2[nH]c(-c3ccc(OCC(=O)NN4C(=O)[C@H]5CC=CC[C@H]5C4=O)cc3)nc2n(CCC)c1=O [Compound 52, 8-[4-[(Carboxymethyl)oxy]phenyl]-1,3-di-(n-propyl)xanthine N,N-(cis-1,2,3,6-Tetrahydrophthaloyl)hydrazide] | Ki [3]: 129 nM; Ki [4]: 301 nM |
| 41.3 ± 6.4 nM | 1160 ± 337 nM | 1.9 | 21.5 ± 1.5 nM | 309 ± 88 nM |  | CCCn1c(=O)c2[nH]c(-c3ccc(OCC(=O)NN4C(=O)C5=C(CCC5)C4=O)cc3)nc2n(CCC)c1=O [Compound 54, 8-[4-[(Carboxymethyl)oxy]phenyl]-1,3-di-(n-propyl)xanthine N,N-(1-Cyclopentene-1,2-dicarbonyl)hydrazide] |  |
| 3.87 ± 1.2 nM | 21.4 ± 6.1 nM | 1.0 | 3.86 ± 0.7 nM | 151 ± 99 nM |  | CCCn1c(=O)c2[nH]c(-c3ccc(OCC(=O)NN4C(=O)CCC(c5ccccc5)C4=O)cc3)nc2n(CCC)c1=O (stereo not shown) [Compound 45, 8-[4-[(Carboxymethyl)oxy]phenyl]-1,3-di-(n-propyl)xanthine N,N-[(2-Phenyl)glutaryl]hydrazide] |  |
| 225 ± 76 nM | 1540 ± 280 nM | 3.4 | 66.7 ± 37 nM | 748 ± 234 nM |  | CCCn1c(=O)c2[nH]c(-c3ccc(OCC(=O)NN4C(=O)C=C(c5ccccc5)C4=O)cc3)nc2n(CCC)c1=O [Compound 49, 8-[4-[(Carboxymethyl)oxy]phenyl]-1,3-di-(n-propyl)xanthine N,N-[(2-Phenyl)maleyl]hydrazide] |  |
| 53.5 ± 6.5 nM | 440 ± 106 nM | 4.1 |  | 726 ± 245 nM | 13 nM | CCCn1c(=O)c2[nH]c(-c3ccc(OCC(=O)NN4C(=O)CC[C@H](NC(=O)C(F)(F)F)C4=O)cc3)nc2n(CCC)c1=O [Compound 61] | Ki [3]: 149 nM; Ki [4]: 178 nM |
| 14 ± 2.3 nM | 135 ± 39 nM | 0.6 | 22 ± 5.5 nM | 200 ± 45 nM |  | CCCn1c(=O)c2[nH]c(-c3ccc(OCC(=O)NN4C(=O)CCCC4=O)cc3)nc2n(CCC)c1=O [Compound 58, 8-[4-[(Carboxymethyl)oxy]phenyl]-1,3-di-(n-propyl)xanthine N,N-Glutarylhydrazide] |  |

From patent publication US6545002B1 (University of Virginia Patent Foundation, priority 1999, dated 2003)
